Experiments:
Assay type in all cases: cell-based, human
MCF-7 cells [1] = test: ROS detection by DCFH-DA flow cytometry, MCF-7; conditions: MCF-7, 4 μM, 24 h
Description: (§1) MCF-7 or MCF-7/DOX cells were seeded at a density of 3 × 10^5 cells per well of a 6-well plate and treated with various concentrations of 6b (0, 1, 2, 4 μM) or 4 μM curcumin for 24 h. DCFH-DA was dissolved in serum-free medium and diluted to a final concentration of 10 μM. After treatment with 6b, the growth media was replaced with serum-free medium containing the probe. After incubation for 20 min at 37 °C, cells were washed with serum-free medium twice, digested by trypsin and resuspended in pre-warmed PBS buffer. The samples were then subjected to a flow cytometry assay using a BD FACSCalibur flow cytometer (Becton & Dickinson Company, Franklin Lakes, NJ).

MCF-7 cells [2] = test: Annexin V-APC/7-AAD flow cytometry of apoptosis, MCF-7; conditions: 4 μM, 24 h
Description: (§2) MCF-7, MCF-7/DOX or MCF-10A cells, at a density of 2.5 × 10^5 cells per well, were cultured in regular growth medium in 6-well plates for 24 h and treated in duplicate with different concentrations of 6b or curcumin for 24 h. The cells were harvested, washed and stained with 5 μL of Annexin V-APC and 5 μL of 7-AAD at room temperature for 15 min. Cells were then analyzed by flow cytometry (488 nm excitation and 600 nm emission filters) using a BD FACSCalibur flow cytometer (Becton & Dickinson Company, Franklin Lakes, NJ).

Cyclin D1 gene = test: Quantitative real-time RT-PCR of Cyclin D1; conditions: MCF-7 and MCF-7/DOX cells, 24 h
Description: (§3) Levels of mRNA expression were analyzed with the RT-PCR assay, with total RNA isolated from MCF-7 or MCF-7/DOX cells using an EASYspin Plus tissue/cell RNA extraction kit (Aidlab Biotechnologies Co. Ltd). RNA was quantified by measuring absorption at 260 nm and 1 μg of RNA was reverse transcribed to cDNA using the Transcriptor First Strand cDNA Synthesis Kit (Roche Diagnostics, Basel, Switzerland). Thermal cycling conditions included 95 °C initial denaturation for 5 min, followed by 40 cycles of denaturation (10 s at 95 °C), annealing (15 s at 60 °C) and extension (15 s at 72 °C with a single fluorescence measurement), a melt curve program (60–95 °C with a 0.11 °C/s heat increase and continuous fluorescence measurement) and a cooling step to 40 °C. The Δ cycle threshold method was used for the calculation of relative differences in mRNA abundance with a LightCycler 480 (Roche Molecular Biochemicals, Mannheim, Germany). The data were normalized to the expression of GAPDH. The results were expressed as fold-changes. The RT-PCR primers that were used in this study are listed in the supporting information.

MCF-7/DOX cells [3] = test: Annexin V-APC/7-AAD flow cytometry of apoptosis, MCF-7/DOX; conditions: 4 μM, 24 h
Description: as §2

MCF-7/DOX cells [4] = test: Flow cytometry of the cell cycle, MCF-7/DOX; conditions: 4 μM, 24 h
Description: (§4) MCF-7 or MCF-7/DOX cells were plated in 6-well culture plates (1.5 × 10^5 cells per well). After incubation overnight, various concentrations of 6b or curcumin were added and cells were incubated for 24 h. Cells were harvested, washed with cold PBS, and incubated with pre-cooled 70% ethanol for a minimum of 4 h at 4 °C to fix them. The cells were then centrifuged, carefully aspirated from the supernatant, and re-suspended in a propidium iodide (final concentration, 40 μg/ml) and RNase A (final concentration, 100 μg/ml) solution at a final cell density of 0.5 × 10^6 cells/ml. The suspension was incubated at 37 °C for 30 min prior to analysis by flow cytometry.

MCF-7/DOX cells [5] = test: ROS detection by DCFH-DA flow cytometry, MCF-7/DOX; conditions: 4 μM, 24 h
Description: as §1

MCF-7 cells [6] = test: MTT anti-proliferative assay, MCF-7; conditions: Homo sapiens, MCF7, 48 h, read-out: MCF-7 IC50 ± SD
Description: (§5) All cell lines were purchased from Cell Bank of Shanghai Institute of Biochemistry and Cell Biology, Chinese Academy of Sciences (Shanghai, China). Human breast carcinoma cells (MCF-7 and MCF-7/DOX), breast epithelial cells (MCF-10A) and normal human liver cells (LO2) were maintained in RPMI-1640 medium. All cells were supplemented with 12% fetal bovine serum containing 50 μg/ml penicillin and 50 μg/ml streptomycin. Cells were grown to 80% confluency in a tissue culture flask at 37 °C in a humidified atmosphere containing 5% CO2, and then were trypsinized with 1 × Trypsin-Versene and split. The MCF-7/DOX cell line we used was established from its parental cell line MCF-7 cell by gradually increasing the concentration of DOX to which the cells were exposed in a stepwise manner over a period of 8 months. […] The cells were incubated in drug-free medium for at least 1 week before use.
(§6) Cells (MCF-7, MCF-7/DOX, MCF-10A, LO2) were seeded in 96-well plates at a density of 3,000–6,000 cells per well. The cells were incubated overnight (16 h) in a humidified 5% CO2 incubator at 37 °C. After media removal, different concentrations of test compounds were added in triplicate to the plates in 200 μL of fresh media and were incubated with the cells at 37 °C for 48 h. […] Cell viability was evaluated using 3-(4, 5-dimethylthiazolyl)-2,5-diphenyltetrazoliumbromide (MTT). The absorbance was read by an ELISA reader (SpectraMax Plus384, Molecular Devices, Sunnyvale, CA) at a test wavelength of 570 nm and a reference wavelength of 630 nm. Cell viability was calculated using the following formula: […]

MCF-7/DOX cells [7] = test: MTT anti-proliferative assay, MCF-7/DOX; conditions: Homo sapiens, MCF7-DOX; MTT, 48 h; read-out: MCF-7/DOX IC50 ± SD
Description: as §5, §6

MCF-7 cells [8] = test: Flow cytometry of the cell cycle, MCF-7; conditions: MCF-7, 4 μM, 24 h
Description: as §4

Bax gene = test: Quantitative real-time RT-PCR of Bax; conditions: MCF-7 and MCF-7/DOX cells, 24 h
Description: as §3

Bcl-2 gene = test: Quantitative real-time RT-PCR of Bcl-2; conditions: MCF-7 and MCF-7/DOX cells, 24 h
Description: as §3

COc1cc(/C=C/C(=O)CC(=O)/C=C/c2ccc(O)c(OC)c2)ccc1O [curcumin]
ROS generation (MCF-7 cells [1]): little effect | apoptosis rate (MCF-7 cells [2]): small effect | Cyclin D1 gene level (in words) (Cyclin D1 gene): little effect | apoptosis rate (MCF-7/DOX cells [3]): small effect | effect on the cell cycle (MCF-7/DOX cells [4]): little effect | ROS generation (MCF-7/DOX cells [5]): little effect | IC50 (MCF-7 cells [6]): 37.7 ± 8.2 µM | IC50 (MCF-7/DOX cells [7]): 32.7 ± 4 µM | effect on the cell cycle (MCF-7 cells [8]): little effect | Bax gene level (in words) (Bax gene): little effect | Bcl-2 gene level (in words) (Bcl-2 gene): little effect

— paper PMC5387716, “Discovery of monocarbonyl curcumin-BTP hybrids as STAT3 inhibitors for drug-sensitive and drug-resistant breast cancer therapy” (Scientific Reports, 2017)
